Laboratory results as given in patent publication US10597388B2, “Pyridazinone herbicides” (FMC CORPORATION, priority 2014, dated 2020).

How the values were obtained:
Format in all cases: in vivo
[1] = test system: nightshade (eastern black nightshade, Solanum ptycanthum); assay: Test E greenhouse herbicide test, pre- and postemergence; settings: Preemergence
Outline: (§1)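 For each species, sown seed in silt loam and young plants (2 to 18 cm) in a peat/vermiculite medium were each treated with compound dissolved in surfactant-containing, non-phytotoxic solvent. After 14 to 21 d under greenhouse conditions, effects were visually rated, 100 meaning complete control.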

[2] = test system: arrowleaf sida (Sida rhombifolia); assay: as above; settings: Preemergence
Outline: as §1

corn (Zea mays) = assay: as above; settings: Preemergence
Outline: as §1

[3] = test system: field bindweed (Convolvulus arvensis); assay: as above; settings: Preemergence
Outline: as §1

[4] = test system: momingglory (Ipomoea coccinea); assay: as above; settings: Preemergence
Outline: as §1

[5] = test system: pigweed, palmer (palmer pigweed, Amaranthus palmeri); assay: as above; settings: Preemergence
Outline: as §1

soybean (Glycine max) = assay: as above; settings: Preemergence
Outline: as §1

[6] = test system: surinam grass (Brachiaria decumbens); assay: as above; settings: Preemergence
Outline: as §1

[7] = test system: horseweed (Conyza canadensis); assay: as above; settings: Preemergence
Outline: as §1

[8] = test system: goosegrass (Eleusine indica); assay: as above; settings: Preemergence
Outline: as §1

[9] = test system: buckwheat, wild (wild buckwheat, Polygonum convolvulus); assay: Test D controlled growth environment herbicide test, pre- and postemergence
Text: Seeds of plant species selected from bluegrass (annual bluegrass, Poa annua), blackgrass (Alopecurus myosuroides), Canada thistle (Cirsium arvense), canarygrass (Phalaris minor), chickweed (common chickweed, Stellaria media), geranium, cutleaf (cutleaf geranium, Geranium dissectum), galium (catchweed bedstraw, Galium aparine), bromegrass, downy (downy bromegrass, Bromus tectorum), field poppy (Papaver rhoeas), field violet (Viola arvensis), foxtail, green (green foxtail, Setaria viridis), deadnettle (henbit deadnettle, Lamium amplexicaule), ryegrass, Italian (Italian ryegrass, Lolium multiflorum), kochia (Kochia scoparia), lambsquarters (Chenopodium album), oilseed rape (Brassica napus), pigweed (Amaranthus retroflexus), chamomile (scentless chamomile, Matricaria inodora), Russian thistle (Salsola kali), speedwell (bird's-eye speedwell, Veronica persica), barley, spring (spring barley, Hordeum vulgare), wheat, spring (spring wheat, Triticum aestivum), buckwheat, wild (wild buckwheat, Polygonum convolvulus), mustard, wild (wild mustard, Sinapis arvensis), oat, wild (wild oat, Avena fatua), radish, wild (wild radish, Raphanus raphanistrum), windgrass (Apera spica-venti), barley, winter (winter barley, Hordeum vulgare), and wheat, winter (winter wheat, Triticum aestivum) were planted into a silt loam soil and treated preemergence with test chemicals formulated in a non-phytotoxic solvent mixture which included a surfactant.
At the same time, these species were planted in pots containing Redi-Earth® planting medium (Scotts Company, 14111 Scottslawn Road, Marysville, Ohio 43041) comprising spaghnum peat moss, vermiculite, wetting agent and starter nutrients and treated with postemergence applications of the test chemicals formulated in the same manner. Plants ranged in height from 2 to 18 cm (1- to 4-leaf stage). Treated plants and controls were maintained in a controlled growth environment for 14 to 21 d after which time all species were compared to controls and visually evaluated. Plant response ratings, summarized in Table D, are based on a scale of 0 to 100 where 0 is no effect and 100 is complete control. A dash (-) response means no test result.

[10] = 62 g ai/ha, scale 0 to 100 (0 no effect, 100 complete control)
[11] = 125 g ai/ha, scale 0 to 100 (0 no effect, 100 complete control)
[12] = 31 g ai/ha, scale 0 to 100, 0 no effect, 100 complete control
[13] = 250 g ai/ha, visual, scale 0 no effect to 100 complete control
[14] = 125 g ai/ha, visual, scale 0 no effect to 100 complete control

CCOC(=O)Oc1c(C)nn(C)c(=O)c1-c1c(CC)ccc2ccccc12 [Compound 37]
Plant response rating, Nightshade [1, 10]: 80 | Plant response rating, Nightshade [1, 11]: 98 | Plant response rating, Nightshade [1, 12]: 90 | Plant response rating, Nightshade [1, 13]: 98 | Plant response rating, Arrowleaf Sida [2, 10]: 85 | Plant response rating, Arrowleaf Sida [2, 12]: 70 | Plant response rating, Arrowleaf Sida [2, 14]: 90 | Plant response rating, Arrowleaf Sida [2, 13]: 98 | Plant response rating, Corn (corn (Zea mays); [10]): 0 | Plant response rating, Corn (corn (Zea mays); [12]): 0 | Plant response rating, Corn (corn (Zea mays); [14]): 0 | Plant response rating, Corn (corn (Zea mays); [13]): 0 | Plant response rating, Field Bindweed [3, 10]: 90 | Plant response rating, Field Bindweed [3, 12]: 75 | Plant response rating, Field Bindweed [3, 14]: 85 | Plant response rating, Field Bindweed [3, 13]: 100 | Plant response rating, Morningglory [4, 10]: 40 | Plant response rating, Morningglory [4, 11]: 50 | Plant response rating, Morningglory [4, 12]: 15 | Plant response rating, Morningglory [4, 13]: 65 | Plant response rating, Pigweed, Palmer [5, 10]: 90 | Plant response rating, Pigweed, Palmer [5, 11]: 100 | Plant response rating, Pigweed, Palmer [5, 12]: 0 | Plant response rating, Pigweed, Palmer [5, 13]: 100 | Plant response rating, Soybean (soybean (Glycine max); [10]): 0 | Plant response rating, Soybean (soybean (Glycine max); [12]): 0 | Plant response rating, Soybean (soybean (Glycine max); [13]): 0 | Plant response rating, Surinam Grass [6, 10]: 75 | Plant response rating, Surinam Grass [6, 11]: 75 | Plant response rating, Surinam Grass [6, 12]: 50 | Plant response rating, Surinam Grass [6, 13]: 90 | Plant response rating, Horseweed [7, 10]: 100 | Plant response rating, Horseweed [7, 12]: 100 | Plant response rating, Horseweed [7, 14]: 100 | Plant response rating, Horseweed [7, 13]: 100 | Plant response rating, Goosegrass [8, 10]: 35 | Plant response rating, Goosegrass [8, 12]: 35 | Plant response rating, Goosegrass [8, 14]: 75 | Plant response rating, Goosegrass [8, 13]: 80

C#CCOC(=O)Oc1c(C)nn(C)c(=O)c1-c1c(C)sc2ccc(C)cc12 [Compound 87]
Buckwheat, Wild plant response rating ([9]; Postemergence, 31 g ai/ha, scale 0 to 100 (0 no effect, 100 complete control)): 85 | Plant response rating, Buckwheat, Wild ([9]; Postemergence, 125 g ai/ha, visual rating on scale 0 (no effect) to 100 (complete control), 14 to 21 d): 100 | Plant response rating, Buckwheat, Wild ([9]; Postemergence, 250 g ai/ha, scale 0 to 100 (0 no effect, 100 complete control)): 100 | Plant response rating (scale of 0 to 100), Buckwheat, Wild ([9]; Preemergence, 31 g ai/ha): 0 | Plant response rating, Buckwheat, Wild ([9]; Preemergence, 62 g ai/ha, scale 0 to 100 (0 no effect, 100 complete control)): 0 | Plant response rating, Buckwheat, Wild ([9]; Preemergence, 125 g ai/ha, scale 0 to 100 (0 no effect, 100 complete control)): 0 | Plant response rating, Buckwheat, Wild ([9]; Preemergence, 250 g ai/ha, scale 0 to 100 (0 no effect, 100 complete control)): 60 | Plant response rating, Buckwheat, Wild ([9]; postemergence, 62 g ai/ha, scale 0 to 100, 0 no effect, 100 complete control): 100 | Plant response rating, Nightshade [1, 10]: 90 | Plant response rating, Nightshade [1, 11]: 98 | Plant response rating, Nightshade [1, 12]: 50 | Plant response rating, Nightshade [1, 13]: 98 | Plant response rating, Arrowleaf Sida [2, 10]: 60 | Plant response rating, Arrowleaf Sida [2, 11]: 70 | Plant response rating, Arrowleaf Sida [2, 12]: 0 | Plant response rating, Arrowleaf Sida [2, 13]: 80 | Plant response rating, Corn (corn (Zea mays); [10]): 0 | Plant response rating, Corn (corn (Zea mays); [11]): 20 | Plant response rating, Corn (corn (Zea mays); [12]): 0 | Plant response rating, Corn (corn (Zea mays); [13]): 15 | Plant response rating, Field Bindweed [3, 10]: 98 | Plant response rating, Field Bindweed [3, 11]: 95 | Plant response rating, Field Bindweed [3, 12]: 40 | Plant response rating, Field Bindweed [3, 13]: 100 | Plant response rating, Morningglory [4, 10]: 35 | Plant response rating, Morningglory [4, 11]: 50 | Plant response rating, Morningglory [4, 12]: 20 | Plant response rating, Morningglory [4, 13]: 90 | Plant response rating, Pigweed, Palmer [5, 10]: 65 | Plant response rating, Pigweed, Palmer [5, 11]: 75 | Plant response rating, Pigweed, Palmer [5, 12]: 0 | Plant response rating, Pigweed, Palmer [5, 13]: 90 | Plant response rating, Soybean (soybean (Glycine max); [10]): 0 | Plant response rating, Soybean (soybean (Glycine max); [11]): 0 | Plant response rating, Soybean (soybean (Glycine max); [12]): 0 | Plant response rating, Soybean (soybean (Glycine max); [13]): 0 | Plant response rating, Surinam Grass [6, 10]: 15 | Plant response rating, Surinam Grass [6, 11]: 80 | Plant response rating, Surinam Grass [6, 12]: 10 | Plant response rating, Surinam Grass [6, 13]: 75 | Plant response rating, Goosegrass [8, 10]: 0 | Plant response rating, Goosegrass [8, 11]: 60 | Plant response rating, Goosegrass [8, 12]: 0 | Plant response rating, Goosegrass [8, 13]: 75
